# Reference: BindingDB's records for patent US20240360134 (Actelion Pharmaceuticals, 2024)
# Assays:
# [1] = molecular target: T1, Platelet-derived growth factor receptor beta (Homo sapiens, UniProt P09619); test: PDGFRβ LanthaScreen Assay
# Description: Dispensing inhibitors: Using Echo, dispense 40 nL/well (or less) compound serial dilutions in DMSO onto the assay plate.Step 2. Dispensing Kinase-Tracer solution: Add 4 μL/well Kinase-Tracer solution. Seal the plate with optically transparent plate seal. […] Detection: Read TR-FRET signals after 18 hours incubation at room temperature.III. […] IC50 values are determined from a 4-parameter fit, using the following equation: Y=Bottom+(Top−Bottom)/(1+10((Log IC50−X)*Hill slope)), where X=log10 of the compound concentration; top can be defined by PC; bottom defined by NC.
# [2] = molecular target: T1, Platelet-derived growth factor receptor beta; test: PDGFRβ HTRF Assay
# Description: PDGFRβ E+I pre-incubation: Add 2 μL 2× protein solution to columns 1-24 using the Multidrop Combi. Centrifuge at 1000 rpm for 1 min. Incubate 30 min at RTStep 2. Enzymatic reaction: Add 2 μL substrate solution to columns 1-24 to initiate the reaction using the Multidrop Combi; cover/seal the assay plate to reduce evaporation. Centrifuge at 1000 rpm for 1 min. […] Quench/Detection: Add 2 μl 3× quench/detection solution to columns 1-24 using the Multidrop Combi; cover/seal the plate. Centrifuge 1 min 1000 rpm. Incubate at RT for 60 min.
# [3] = molecular target: Vascular endothelial growth factor receptor 2 (Homo sapiens, UniProt P35968); test: VEGFR ADP GLO Assay
# Description: Step 1. Dispensing inhibitors/controls: Using Echo, dispense 10 nL/well compound serial dilutions in DMSO to columns 1-22 (in 384-well plates) or columns 1-44 (in 1536-well plates). Dilution series=11 pt, 3-fold dilutions. The top compound concentration in the source plate is […]. The top compound concentration in the assay plate is 10 uM. Using Echo, dispense 10 nl/well DMSO to column 23 (in 384-well plates) or columns 45-47 (in 1536-well plates). These wells will serve as negative control wells Using Echo, dispense 10 nl/well 400 uM TAK-593 in DMSO to column 24 (in 384-well plates) or column 48 (in 1536-well plates). The final concentration of TAK-593 in the assay should be 1 uM. These wells will serve as positive control wells.Step 2. Pre-incubation of inhibitors with kinase: Add 2 μL/well 2× kinase solution. Centrifuge at 1000 rpm for 1 min. Incubate at room temperature for 30 min.Step 3. Kinase cascade reaction: Add 2 μL/well 2× substrate/ATP solution to initiate kinase reactions. Centrifuge at 1000 rpm for 1 min. Incubate at room temperature for 180 min.Final concentrations of components in the assay:[VEGFR2]=5 nM;[ATP]=1.2 mM;[Srctide]=1 mg/mL;[DMSO]≤1%.Step 4. Quench: Add 2 uL/well ADP Glo Reagent+0.05% CHAPS. Centrifuge at 1000 rpm for 1 min; Incubate at room temperature for one hour.Step 5. Detection: Add 2 uL/well Kinase Detection Reagent+0.05% CHAPS. Centrifuge at 1000 rpm for 1 min; Incubate at room temperature for 1 hour; Read Luminescence on a plate reader.
# T1 sequence (P09619 whole entry): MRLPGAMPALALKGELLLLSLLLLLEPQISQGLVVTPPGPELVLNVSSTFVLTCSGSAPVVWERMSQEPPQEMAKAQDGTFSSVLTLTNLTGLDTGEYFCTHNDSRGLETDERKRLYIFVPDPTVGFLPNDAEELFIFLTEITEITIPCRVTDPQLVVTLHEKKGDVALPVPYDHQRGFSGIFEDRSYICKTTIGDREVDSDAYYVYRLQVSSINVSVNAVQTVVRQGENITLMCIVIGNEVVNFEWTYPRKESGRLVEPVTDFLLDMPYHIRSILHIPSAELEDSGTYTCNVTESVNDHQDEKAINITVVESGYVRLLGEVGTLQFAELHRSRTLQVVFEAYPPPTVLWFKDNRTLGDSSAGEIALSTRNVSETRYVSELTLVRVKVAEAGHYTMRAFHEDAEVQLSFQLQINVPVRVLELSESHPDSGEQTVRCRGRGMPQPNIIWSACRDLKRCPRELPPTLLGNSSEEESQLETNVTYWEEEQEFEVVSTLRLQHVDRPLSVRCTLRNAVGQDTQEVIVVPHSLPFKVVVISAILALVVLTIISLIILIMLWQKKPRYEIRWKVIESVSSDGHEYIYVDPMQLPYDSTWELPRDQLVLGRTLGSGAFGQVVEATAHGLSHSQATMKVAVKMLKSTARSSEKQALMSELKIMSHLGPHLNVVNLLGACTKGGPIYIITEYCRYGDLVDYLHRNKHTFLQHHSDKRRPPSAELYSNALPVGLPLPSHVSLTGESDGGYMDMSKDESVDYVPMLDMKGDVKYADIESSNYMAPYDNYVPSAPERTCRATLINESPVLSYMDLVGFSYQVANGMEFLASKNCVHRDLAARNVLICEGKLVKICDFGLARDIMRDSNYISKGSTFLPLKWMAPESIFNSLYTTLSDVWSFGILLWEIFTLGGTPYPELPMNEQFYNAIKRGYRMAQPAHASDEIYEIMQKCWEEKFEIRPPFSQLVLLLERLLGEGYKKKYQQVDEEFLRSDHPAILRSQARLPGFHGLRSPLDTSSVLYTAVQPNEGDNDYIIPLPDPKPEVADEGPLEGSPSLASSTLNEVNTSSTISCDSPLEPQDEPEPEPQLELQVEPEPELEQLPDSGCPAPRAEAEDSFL
# Vascular endothelial growth factor receptor 2, sequence (P35968 whole entry): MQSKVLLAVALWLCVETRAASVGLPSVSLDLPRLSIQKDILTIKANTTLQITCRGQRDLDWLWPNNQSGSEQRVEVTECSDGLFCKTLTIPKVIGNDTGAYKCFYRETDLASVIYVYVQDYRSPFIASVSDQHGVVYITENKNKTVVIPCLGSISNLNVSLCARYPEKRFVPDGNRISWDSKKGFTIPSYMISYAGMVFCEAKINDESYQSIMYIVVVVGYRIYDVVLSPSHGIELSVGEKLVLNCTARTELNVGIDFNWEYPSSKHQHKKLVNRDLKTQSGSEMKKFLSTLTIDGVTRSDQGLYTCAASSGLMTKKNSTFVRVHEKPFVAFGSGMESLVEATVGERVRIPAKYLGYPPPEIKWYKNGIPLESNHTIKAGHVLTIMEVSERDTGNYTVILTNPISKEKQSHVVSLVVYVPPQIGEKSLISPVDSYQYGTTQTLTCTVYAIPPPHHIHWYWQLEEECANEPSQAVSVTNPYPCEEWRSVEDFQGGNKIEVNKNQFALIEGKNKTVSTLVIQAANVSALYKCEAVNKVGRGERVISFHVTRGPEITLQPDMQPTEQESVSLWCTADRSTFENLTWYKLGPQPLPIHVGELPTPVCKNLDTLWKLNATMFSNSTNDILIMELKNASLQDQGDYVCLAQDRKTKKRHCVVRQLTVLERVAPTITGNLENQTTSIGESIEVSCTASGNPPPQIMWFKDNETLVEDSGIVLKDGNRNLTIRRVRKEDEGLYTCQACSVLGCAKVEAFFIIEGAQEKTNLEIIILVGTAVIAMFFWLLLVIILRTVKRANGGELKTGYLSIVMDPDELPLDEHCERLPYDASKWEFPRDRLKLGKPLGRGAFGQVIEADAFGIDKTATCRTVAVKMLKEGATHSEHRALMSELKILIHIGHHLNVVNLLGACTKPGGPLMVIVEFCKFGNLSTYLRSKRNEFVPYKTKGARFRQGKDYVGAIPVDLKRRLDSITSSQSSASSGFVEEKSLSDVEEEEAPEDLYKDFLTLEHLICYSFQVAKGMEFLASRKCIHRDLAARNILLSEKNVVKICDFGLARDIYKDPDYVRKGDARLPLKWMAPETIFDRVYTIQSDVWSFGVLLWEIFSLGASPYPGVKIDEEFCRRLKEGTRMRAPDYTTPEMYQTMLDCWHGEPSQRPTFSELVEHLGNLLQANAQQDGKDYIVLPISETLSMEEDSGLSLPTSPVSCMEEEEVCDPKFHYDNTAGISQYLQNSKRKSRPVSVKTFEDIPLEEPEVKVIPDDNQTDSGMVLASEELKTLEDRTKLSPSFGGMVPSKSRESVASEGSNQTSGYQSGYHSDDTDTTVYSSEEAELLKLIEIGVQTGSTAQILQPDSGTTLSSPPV
structure (smiles),measurement,setting,value
"Cc1ncc(NC(=O)CN2C[C@H](C)O[C@@H](C)C2)cc1Nc1nn(C)c2nc(Nc3cnn(C)c3)ncc12 (relative stereo) [US20240360134, Example 73]",IC50,[1],2.6 nM
same,IC50,[2],0.5 nM
same,IC50,[3],4570 nM
"COC(=O)Cc1cccc(Nc2ncc3c(Nc4cc(C(=O)NCCN5CCCC5(C)C)cnc4C)nn(C)c3n2)c1 [US20240360134, Example 43]",IC50,[1],4.1 nM
same,IC50,[2],0.54 nM
same,IC50,[3],2080 nM
"COC(=O)C(C)(C)c1cccc(Nc2ncc3c(Nc4cc(C(=O)NCCN5CCCC5(C)C)cnc4C)nn(C)c3n2)c1 [US20240360134, Example 46]",IC50,[1],4.9 nM
same,IC50,[2],0.81 nM
same,IC50,[3],3580 nM
"Cc1ncc(NC(=O)CN2CCC[C@@H]2C)cc1Nc1nn(C)c2nc(Nc3cnn(C)c3)ncc12 [US20240360134, Example 71]",IC50,[1],2.1 nM
same,IC50,[2],0.25 nM
same,IC50,[3],> 7500 nM
"Cc1ncc(NC(=O)CN2CCC(F)(F)CC2)cc1Nc1nn(C)c2nc(Nc3cnn(C)c3)ncc12 [US20240360134, Example 72]",IC50,[1],1.7 nM
same,IC50,[2],0.27 nM
same,IC50,[3],1100 nM
"Cc1ncc(NC(=O)CN2CCC3(CC3)C2)cc1Nc1nn(C)c2nc(Nc3cnn(C)c3)ncc12 [US20240360134, Example 74]",IC50,[1],1.6 nM
same,IC50,[2],0.23 nM
same,IC50,[3],5070 nM
"Cc1ncc(NC(=O)CN2CCC(F)(F)C2)cc1Nc1nn(C)c2nc(Nc3cnn(C)c3)ncc12 [US20240360134, Example 75]",IC50,[1],2.1 nM
same,IC50,[2],0.35 nM
same,IC50,[3],847 nM
"Cc1ncc(NC(=O)CN2CC(F)(F)C2)cc1Nc1nn(C)c2nc(Nc3cnn(C)c3)ncc12 [US20240360134, Example 76]",IC50,[1],2.6 nM
same,IC50,[2],0.42 nM
same,IC50,[3],3600 nM
"Cc1ncc(NC(=O)CN2C[C@@H](C)O[C@@H](C)C2)cc1Nc1nn(C)c2nc(Nc3cnn(C)c3)ncc12 [US20240360134, Example 78]",IC50,[1],3.7 nM
same,IC50,[2],0.59 nM
same,IC50,[3],3930 nM
"Cc1ncc(NC(=O)CN(CCO)C2CCCC2)cc1Nc1nn(C)c2nc(Nc3cnn(C)c3)ncc12 [US20240360134, Example 79]",IC50,[1],2.5 nM
same,IC50,[3],5390 nM
"Cc1ncc(NC(=O)CN(CCCO)C2CCCC2)cc1Nc1nn(C)c2nc(Nc3cnn(C)c3)ncc12 [US20240360134, Example 80]",IC50,[1],3.2 nM
same,IC50,[2],0.5 nM
same,IC50,[3],> 7500 nM
